The test system of series [1] is PTSD patients. The series is described as follows: Discontinuation and adverse events during paroxetine treatment in PTSD. The format is in vivo, human. Conditions: for Subjects with adverse events relating to anxiety, insomnia, headache or tremor / Subjects with erectile dysfunction, decreased libido or delayed ejaculation: group that discontinued. The protocol:
Sixty-five unrelated male Caucasian patients with the diagnosis of PTSD were recruited for study. All subjects were Vietnam combat veterans who had served in the Australian armed forces. None were being treated with psychotropic medication.
After initial assessment, patients were medically examined and then were started on 20 mg/day of paroxetine for the first two weeks followed by a 40 mg/day dose for the remaining six weeks.
Patient assessments were conducted blind to their DRD2 allelic status. In addition to their standard treatment, patients were monitored twice for adverse events. Drug compliance was checked by pill count. All participants provided written informed consent and were able to terminate treatment without prejudice. However, those terminating participation were asked to provide reasons for their withdrawal. Institutional ethics approval was obtained from the Greenslopes Private Hospital.

Series [2] deals with PTSD patients. The experiment in a line: General Health Questionnaire-28 (GHQ) outcome of paroxetine treatment in PTSD. The series is classed as in vivo, human. Conditions: for GHQ total score, baseline vs treatment: 8 weeks. An excerpt: Sixty-five unrelated male Caucasian patients with the diagnosis of PTSD were recruited for study. All subjects were Vietnam combat veterans who had served in the Australian armed forces. None were being treated with psychotropic medication. […] confirmed by all patients exceeding the clinical cut-off score of 94 on the Mississippi Scale for combat-related posttraumatic stress disorder (Zatzick et al., 1997). The validity and reliability of the Mississippi scale ate well established in veterans (Keane et al., 1988). Patients then underwent clinical history taking by a psychiatrist or by a clinical nurse (EP). Demographic data and ethnic background were also obtained. […] The General Health Questionnaire-28 (GHQ) was administered at baseline (0-7 days on paroxetine) and at the end of treatment (8 weeks after commencement on paroxetine). This questionnaire measures four psychopathological factors particularly relevant to PTSD and its comorbid psychiatric conditions: somatic concerns (GHQ1), anxiety/insomnia (GHQ2), social dysfunction (GHQ3) and depression (GHQ4). The GHQ has been widely validated internationally as a means of detecting psychiatric […] sensitive to change (Ormel et al., 1989). The GHQ has utility as a follow-up measure of veteran mental health following exposure to combat (Deahl et al., 1994) and is sensitive to changes in combat-related PTSD symptoms (Ward, 1997). Information coded from the interviews, GHQ and genotyping results were entered into a computer database. Nominal data were analyzed by Yates corrected X^2 test and continuous data, with repeated measures, were analyzed by paired t-test or by analysis of variance. P values≦0.05 were considered statistically significant.

Another series deals with PTSD. The settings on record: compared to 32% with placebo; cited from earlier work.

Entries after “also recorded” stand apart in the source; their conditions may differ.

Take `CN1CCN(C2=Nc3cc(Cl)ccc3Nc3ccccc32)CC1` [Clozapine]: the “Number of patients exceeding hyperprolactinemia cut-off levels” value in the series with Serum prolactin (Clozapine and Olanzapine patients combined) was determined as 7. Besides, in the series with Serum prolactin (Clozapine and Olanzapine patients combined, sample of 144), the “Hyperprolactinemic patients as share of the sample” value is reported as 5%. In addition, the “Prolactin levels in A1+ compared to A1− allelic patients” value in the series with Serum prolactin (P=0.04) is “more than two fold higher”.
Regarding `Fc1ccc([C@@H]2CCNC[C@H]2COc2ccc3c(c2)OCO3)cc1` [paroxetine], the “Number of patients who discontinued treatment” value is given as 4 in the series with PTSD patients [1] (A1+ (of 26)), 16 with PTSD patients [1] (A1− (of 39)) and 20 in the series on PTSD patients [1] (of the 65 patients who entered the study). In addition, the “Subjects with adverse events relating to anxiety, insomnia, headache or tremor” value with PTSD patients [1] (A1+) is 2; in the series with PTSD patients [1] (A1−) it was 11. Also, the “Subjects with erectile dysfunction, decreased libido or delayed ejaculation” value with PTSD patients [1] (A1+) amounted to 2; in the series with PTSD patients [1] (A1−) it was 5. The “GHQ3 (social dysfunction) subscale score over the course of treatment” value in the series on PTSD patients [2] (A1+ allelic subjects) is recorded as “significant improvement”; with PTSD patients [2] (A1− allelic subjects), “no such improvement”; with PTSD patients [2] (total patient group) it was “significant improvement”. In addition, the “GHQ total score, baseline vs treatment” value is reported as “no significant improvement; also recorded: did not” in the series with PTSD patients [2] (A1− patients) and “significant improvement” with PTSD patients [2] (total 45 patients). The “GHQ1 (somatic concerns) subscale score over the course of treatment” value in the series on PTSD patients [2] (total patient group) is “not significantly reduced”. In addition, the “GHQ2 (anxiety/insomnia) subscale score over the course of treatment” value in the series on PTSD patients [2] (total patient group) was “significantly reduced”. Further, in the series with PTSD patients [2] (total patient group), the “GHQ4 (depression) subscale score during treatment” value is “significant improvement”.
For `CN[C@H]1CC[C@@H](c2ccc(Cl)c(Cl)c2)c2ccccc21` [sertraline], the Responder rate in the series on PTSD is listed as 53%.

The values are drawn from patent US20070026402A1, “Genetic marker of response to atypical antipsychotics and antidepressants methods for use thereof” (priority 2003, published 2007).
